Structures can show the parent of a compound that is named as a salt.

The nature of one series: Acute toxicity in mice. The note with it: mouse, in vivo, ip; intraperitoneal, male I.C.R. mice, survivals at one week. How it is done: Test: Acute Toxicity in Mice
A normal saline containing each of the test compound mentioned below and 0.5% carboxymethylcellulose was given intraperitoneally to male I.C.R. (Institute of Cancer Research) strain mice aged 5 weeks, weighing 33-35 g. LD50 values were calculated from the survivals of mice at one week after the administration of the test compound.

The subject of series [1] is P.C.A. reaction in I.C.R. strain mice. The series can be described thus: Inhibition test of P.C.A. reaction in I.C.R. strain mice, rat hyperimmune antiserum against egg albumin. The format is in vivo. The following applies: I.C.R. mouse (Table 3-I). Here is the method: (c) Inhibition test of P.C.A. reaction in I.C.R. (Institute of Cancer Research) strain mice
(i) Test compound: N-methyllaurotetanine hydrochloride
Fifteen male I.C.R. strain mice aged 7 weeks, weighing about 35 g were divided equally into 3 groups. Each of the groups was composed of 5 mice, (in case of intraperioneal administration of the test compound to the mouse, each of the groups was composed of […]).
Ten-hold diluted solution (0.05 ml.) of the rat hyperimmune antiserum against egg albumin was given intracutaneously to the depilated back of each mouse of Group I and Group II, respectively. On the other hand, a rat normal serum (0.05 ml.) was given intracutaneously to the depilated back of each mouse of Group III. Three hours after the administration, a normal saline (0.1 ml.) containing egg albumin (1.5 mg.) and Evans blue (0.5 mg.) was given intravenously to each mouse of Groups I-III in order to bring about P.C.A., respectively.
Beforehand, 3 hours and 1 hours before the admnistration to bring about P.C.A., a normal saline (0.3 ml.) containing the prescribed amount of N-methyllaurotetanine hydrochloride and carboxymethylcellulose (0.5%) was given orally or intraperitoneally to each mouse of Group I, and a normal saline (0.3 ml.) containing only carboxymethylcellulose (0.5%) was given orally or intraperitoneally to each mouse of Group II.
The procedure followed by the above, was carried out in substantially the same manner as described in the above item (2)-(a). […]

Series [2] deals with P.C.A. reaction in Donryu strain rats. The series can be described thus: Inhibition of P.C.A. reaction in Donryu strain rats, rat reaginic antiserum against egg albumin. The format is in vivo. The following applies: Donryu rat (Table 2-I). Here is the method:
(a) Rat reaginic antiserum against egg albumin
A solution of egg albumin (2 mg) in B. pertussis-diphtheria-tetanus mixed vaccine (1 ml.) (made by Takeda Chemical Industries Ltd.) was mixed with an equal volume of incomplete adjuvant (made by Difco Laboratories) to give an emulsion. The emulsion was given subcutaneously in a single dose of 1 ml. divided equally (0.25 ml.) to the four foot pads of male S.D. (Sprague-Dawley) strain rats aged 8 weeks, each weighing about 300 g.
Five days after the administration, a solution of egg albumin (0.5 mg.) in B. pertussis-diphtheria-tetanus mixed vaccine (0.5 ml.) was further given intramuscularly in a single dose of 0.5 ml. divided equally (0.25 ml.) to 2 places of thigh of the same rats.
Three days after the second administration, blood samples were collected from femoral artery of the rats and allowed to stand at ambient temperature for 5 hours. The separated supernatant was centrifuged at 4° C. (10,000 r.p.m.× 1 hour). The antisera thus obtained were stored at -80° C. prior to use.
(b) Inhibitory effect on P.C.A. reaction in Donryu strain rat
The following tests were carried out in substantially the same manner as described in the above item (2)-(a).
(i) Test compound: N:methyllaurotetanine hydrochloride
Test animal: Male Donryu strain rats aged 8 weeks, weighing about 130 g.
Challenge: A normal saline (0.3 ml.) containing egg albumin (4.5 mg.) and Evans blue (1.5 mg.).
(ii) Test commpound: glaucine or boldine
Test animal: Male Donryu strain rats aged 8 weeks, weighing 140-150 g.
Challenge: the same as the above item (b)-(i).

`COc1cc2c(cc1O)CC1c3c(cc(OC)c(OC)c3-2)CCN1C` (stereo not drawn) [N-Methyllaurotetanine hydrochloride]: in the series “Acute toxicity in mice”, the LD50 (as a rule, the dose at which mortality reaches 50%) at 168 h came out at 91.7 mg/kg. Besides, the “Inhibitory effect on P.C.A. reaction” value was 50% in series [1] (intraperitoneal, 3 mg/kg); 80% in series [1] (intraperitoneal, 10 mg/kg); 95% in series [1] (intraperitoneal, 30 mg/kg); 20% in series [1] (oral, 16 mg/kg); 50% in series [1] (oral, 48 mg/kg); 70% in series [1] (oral, 145 mg/kg). Besides, the “Inhibitory effect on P.C.A. reaction” value in series [2] (intraperitoneal, 4 mg/kg) is 30%; in series [2] (intraperitoneal, 13 mg/kg) it was 60%; in series [2] (intraperitoneal, 40 mg/kg), 70%; in series [2] (intravenous, 6.7 mg/kg), 70%; in series [2] (intravenous, 20 mg/kg) it was 100%; in series [2] (oral, 20 mg/kg) it was 40%. Besides, the “Inhibitory effect on P.C.A. reaction” value in series [2] (oral, 66 mg/kg) is given as 70%; in series [2] (oral, 200 mg/kg), 90%.

Values taken from patent US4185119A, “Antiallergic methods” (priority 1977, dated 1980).
